Here are results for one compound from patent US20250032447A1, “USE OF UROLITHIN IN THE REMISSION PHASE OF A PRECEDING CANCER THERAPY” (SOCIETE DES PRODUITS NESTLE S.A., priority 2022, published 2025).

Experiment [1] has as its system MC38 colorectal cancer cells. Briefly: MC38 tumor challenge in mice fed UroA enriched diet. Format: in vivo, C57BL/6 mice. An excerpt: Cell line and in vitro culture: An MC38 colorectal cancer cell line and a B16 cell line were used. The MC38 colorectal cancer cell line (Corbett el al., Can Res, 1975) is a murine colon adenocarcinoma cell line from a C57BL/6 mouse. The cells are adherent and have a fibroblast morphology. MC38 cells will form tumors and metastases post implantation into syngeneic C57BL/6 mice or immunocompromised mice. The B16 melanoma is a murine tumor cell line used for research as a model for human skin cancers. Both MC38 and B16 cancer cell lines are commercially available.
The MC38 colorectal cancer cell line was maintained in RPMI 1640 media (Thermofisher) supplemented with 10% FBS (Gibco), 50 μM beta-mercaptoethanol (Thermofisher), 100 U/ml penicillin/streptomycin (Thermofisher), 1 mM Sodium Pyruvte (Thermofisher).
B57BL/6 mice were purchased from ENVIGO and housed in the animal facility of the University of Lausanne. One week upon arrival mice were fed ad libitum with Urolithin A enriched diet. Urolithin A diet was prepared as follow: 300 mg of Urolithin A (Novalix) was dissolved in DMSO (Applichem) and mixed with 1 kg of “2016 Irradiated Global 16% Rodent diet ground” (ENVIGO) corresponding to a dose of 50 mg/kg/day. For control diet, hereafter named DMSO diet, DMSO (Applichem) was mixed with 1 kg of “2016 Irradiated Global 16% Rodent diet ground” (ENVIGO). The diets were aliquoted in small balls and let them dry under sterile conditions. Mice were fed ad libitum for 4 weeks with DMSO diet or Urolithin A diet before tumor engraftment.
For tumor engraftment, each mouse was injected subcutaneously with 5×10^5 MC38 cancer cells or 1×10^5 B16 cancer cells into the right flank.
For the MC38 and B16 experiments 5 mice received ad libitum DMSO diet, and 5 mice received ad libitum Urolithin A enriched diet for 4 weeks before tumor injection. Mice were sacrificed at humane endpoint as established by the Swiss federal regulation and approved by cantonal authorities. Examples of humane endpoint are: tumor size exceeding […], loss of weight (15% of the previous time point) and sign of distress. […] These mice were named survivor mice.
To test this hypothesis, mice were fed ad libitum with UroA diet (see above, Urolithin A diet) and control diet (DMSO, see above) for 4 weeks. Colorectal cancer cells MC38 were subcutaneously injected in the right flank of the mice (FIG. 1A). Tumor volumes were estimated by using the formula: tumor volume=(length×width×width)/2.

Experiment [2] relates to MC38 colorectal cancer cells. Put plainly: MC38 tumor re-challenge of survivor mice. It is filed as in vivo. An excerpt: For re-challenge experiments, survivor mice were removed from the UroA diet and placed in conventional diet (diet provided by the animal facility of University of Lausanne) for one week. During this week one mouse developed tumor and was excluded from the experiment. The remaining 3 mice were subcutaneously injected with 5×10^5 MC38 cancer cells. At the same time, another 5 mice (named control cage) were subcutaneously injected with 5×10^5 MC38 cancer cells. This second tumor injection was done on the left flank of the mouse to discriminate between tumor arising from the first injection from tumor arising from the second, re-challenge, injection.
Then, it was tested whether UroA mediated tumor control was exerted through adaptive immune response. It was assumed as a working hypothesis that memory T cells with antitumoral activity would have been generated in the survivor hosts, which would promptly react against a second tumor graft. To test this hypothesis, survivor mice from the UroA group were injected after 7 weeks with the same cancer cell line (MC38) in the opposite flank (FIG. 2A). To exclude any possible contribution of UroA in tumor growth, the mice survivor mice and a control cage group were kept in conventional food without UroA for one week before tumor injection.

Experiment [3] relates to B16 melanoma. Put plainly: B16 melanoma tumor challenge in mice fed UroA enriched diet. The settings on record: 5 mice; Urolithin A enriched diet ad libitum 4 weeks before B16 injection. Format: in vivo, B57BL/6 mice. The method, then: The B16 cell line were maintained in DMEM+GlutaMAX (Thermofisher) supplemented with 10% FBS (Gibco), and 100 U/ml penicillin/streptomycin (Thermofisher). B57BL/6 mice were purchased from ENVIGO and housed in the animal facility of the University of Lausanne. One week upon arrival mice were fed ad libitum with Urolithin A enriched diet. Urolithin A diet was prepared as follow: 300 mg of Urolithin A (Novalix) was dissolved in DMSO (Applichem) and mixed with 1 kg of “2016 Irradiated Global 16% Rodent diet ground” (ENVIGO) corresponding to a dose of 50 mg/kg/day. For control diet, hereafter named DMSO diet, DMSO (Applichem) was mixed with 1 kg of “2016 Irradiated Global 16% Rodent diet ground” (ENVIGO). The diets were aliquoted in small balls and let them dry under sterile conditions. Mice were fed ad libitum for 4 weeks with DMSO diet or Urolithin A diet before tumor engraftment. For tumor engraftment, each mouse was injected subcutaneously with 5×10^5 MC38 cancer cells or 1×10^5 B16 cancer cells into the right flank. For the MC38 and B16 experiments 5 mice received ad libitum DMSO diet, and 5 mice received ad libitum Urolithin A enriched diet for 4 weeks before tumor injection. Mice were sacrificed at humane endpoint as established by the Swiss federal regulation and approved by cantonal authorities. […]

The next experiment deals with MC38 cells. Briefly: MC38 tumor challenge in immunodeficient NSG mice. Format: in vivo. The following applies: for effect on tumor growth rate and size: NSG immunodeficient mice, vs DMSO control. The source says:
To validate that the Urolithin A supplementation enhances the adaptive immune response 5×10^5 MC38 cells were subcutaneously injected in the right flank of the immunodeficient mice NSG (NOD.Cg-Prkdc^sc^i^d II2rg^tm1Wil/SzJ) previously fed with Urolithin A enriched diet for 4 weeks. Tumor volumes were estimated by using the formula: tumor volume=(length×width×width)/2. 5 mice recede the DMSO diet and 5 mice received the Urolithin A enriched diet. Both the 5 mice receiving the DMSO diet and the 5 mice receiving the Urolithin A enriched diet developed tumors.

Experiment [4] concerns B16 melanoma. Put plainly: B16 melanoma preventive effect, diet on/off. It is filed as in vivo, B57BL/6 mice. The following applies: day 17, 5×10^5 B16 cells s.c. The source says: To test whether Urolithin A feeding would have a preventive effect by boosting the immune system inventors performed the following experiment. A less immunogenic tumor model B16 melanoma was chosen for this experiment. 10 mice received ad libitum DMSO diet (see above), and 10 mice received ad libitum Urolithin A enriched diet (see above) for 4 weeks. Then 5 mice from DMSO diet were placed in conventional diet (provided by Animal facility), this group was called DMSO on/off. The remaining 5 mice were kept in DMSO diet and named DMSO group. 5 mice from Urolithin diet were placed in conventional diet (provided by Animal facility), this group was called UroA on/off. The remaining 5 mice were kept in […]. After one week, 5×10^5 B16 cells were subcutaneously injected in the right flank of B57BL/6 mice. Tumor engraftment, diet treatment and re-challenge experiments were as described initially in Example 1.

Experiment [5] can be described thus: Initial tests in mice fed diet supplemented with UroA. Format: in vivo.

“Also recorded” adds a separate entry of the source.

For the compound `O=c1oc2cc(O)ccc2c2ccc(O)cc12` [Urolithin A, 3,8-dihydroxyurolithin], the average tumor size in experiment [1] (Exp1, 5 mice, Urolithin A enriched diet ad libitum 4 weeks (50 mg/kg/day) before s.c. injection of 5×10^5 MC38 cells) came to 50 mm^3; in the experiment on B16 melanoma [3] it was 70 mm^3; in the experiment on B16 melanoma [4] (UroA group (kept on diet)) it was 200 mm^3; in the experiment with B16 melanoma [4] (UroA on/off group (4 weeks diet, then conventional diet one week before injection)), 200 mm^3. For the same compound, the “tumor engraftment and growth” value in experiment [1] (Exp1 and Exp2, UroA enriched diet ad libitum vs DMSO diet) is “significantly reduced”. Moreover, the “mice that developed tumors bigger than 100 mm^3” value in experiment [1] (Exp2, out of 3 mice on Urolithin A enriched diet) is on record as “one”. For the same compound, the “mice that did not develop any tumor” value in experiment [1] (MC38, mice fed Urolithin A diet) is on record as 4 out of 5. The overall survival result in experiment [1] (UroA diet compared to DMSO diet, MC38 model) was “improved overall survival”. For the same compound, in experiment [2] (survivor mice re-injected with MC38 in opposite flank after 7 weeks, conventional food without UroA for one week before injection), the “average tumor size upon re-challenge” value was determined as 100 mm^3. For the same compound, the survival upon re-challenge result in experiment [2] (survivor mice vs freshly challenged control cage group, listed as UroA) is “better tumor control capacity and survival; also recorded: improved overall survival”. The “effect on tumor growth rate and size” value with MC38 cells was “no change in tumors growth rate and volume”; in the experiment on MC38 cells (listed as UroA) it was “no effect on tumor size”. The compound also gave a tumor size at last timepoint in the experiment with MC38 cells (day 18, NSG mice, Urolithin A enriched diet 4 weeks, 5×10^5 MC38 cells s.c.) of 1000 mm³. For the same compound, in experiment [5], the “overall quality of HSCs” value is reported as “increased”. Further, the splenocytes count result in experiment [5] is on record as “increased”.
